Data on 16 compounds can be found in patent US6333340A, “Small molecule sulfonamides for vision and memory disorders” (Gpi Nil Holdings, Inc., priority 1998, dated 2001).

Series [1] is described as follows: Clearance (comments of Table V). It counts as in vitro ADME.
In series [2] the test system is retinal ganglion cell axons. Description: Protection of retinal ganglion cell axons from degeneration following optic nerve transection, RT 97 axon density (Table V). The format is in vivo. From the text: Efficacy of representative compounds from different immunophilin ligand series in protecting retinal ganglion cell axons from degeneration following optic nerve transection is set forth in Table V.

Series [3] concerns the target FKBP12 (Homo sapiens, UniProt P62942). Description: Inhibition of peptidyl-prolyl isomerase (rotamase) activity of FKBP, chymotrypsin-coupled assay. It counts as biochemical. From the text:
The inhibition of the prolyl peptidyl cis-trans isomerase activity of FKBP may be measured as an indicator of this affinity.
Inhibition of the peptidyl-prolyl isomerase (rotamase) activity of the compounds used in the inventive methods and pharmaceutical compositions can be evaluated by known methods described in the literature (Harding et al., Nature, 1989, 341:758-760; Holt et al. J. Am. Chem. Soc., 115:9923-9938). These values are obtained as apparent Ki 's and are presented for representative compounds in TABLE B.
The cis-trans isomerization of an alanine-proline bond in a model substrate, N-succinyl-Ala-Ala-Pro-Phe-p-nitroanilide, is monitored spectrophotometrically in a chymotrypsin-coupled assay, which releases para-nitroanilide from the trans form of the substrate. The inhibition of this reaction caused by the addition of different concentrations of inhibitor is determined, and the data is analyzed as a change in first-order rate constant as a function of inhibitor concentration to yield the apparent Ki values.
In a plastic cuvette are added […] of ice cold assay buffer (25 mM HEPES, pH 7.8, 100 mM NaCl), 10 mL of FKBP (2.5 mM in 10 mM Tris-Cl pH 7.5, 100 mM NaCl, 1 mM dithiothreitol), 25 mL of chymotrypsin (50 mg/ml in 1 mM HCl) and […] of test compound at various concentrations in dimethyl sulfoxide. The reaction is initiated by the addition of 5 mL of substrate (succinyl-Ala-Phe-Pro-Phe-para-nitroanilide, 5 mg/mL in 2.35 mM LiCl in trifluoroethanol).
The absorbance at 390 nm versus time is monitored for 90 seconds using a spectrophotometer and the rate constants are determined from the absorbance versus time data files.

Setting [4] is: apparent Ki, Table B, read-out: Ki.

SMILES strings stand for the structures. pKi: −log10 of the molar value. Read-outs that look alike come from different tables or passages of the source.

Chain of FKBP12 (P62942 whole entry): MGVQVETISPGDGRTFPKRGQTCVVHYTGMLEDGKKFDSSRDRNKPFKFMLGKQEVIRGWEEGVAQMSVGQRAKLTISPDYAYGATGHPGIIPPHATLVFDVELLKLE

Consider `CCC(C)(C)C(=O)C(=O)N1CCC[C@H]1C(=O)SCCC(c1ccccc1)c1ccccc1` [M], for which the Clearance in series [1] stood at 12.5 µL/min. Besides, in series [2], the “RT 97 RCC axon density 11 days after ON transection (36 ON axon rescued)” value (from here on “RT 97 RCC axon density 11 days”) was -6.3%. Taken in the same sequence, the figures for `CCC(C)(C)C(=O)C(=O)N1CCCC[C@H]1C(=O)SCCC(c1ccccc1)c1ccccc1` [K] were 4.5 µL/min and 13.0%. Regarding `CCC(C)(C)C(=O)C(=O)N1CCS[C@H]1C(=O)OCCCc1cccnc1` [F], the negative-log Ki (pKi) in series [3] (Table V, read-out: Ki rotomase) was 6.57. The “RT 97 RCC axon density 11 days” value in series [2] is 55.1%. As for `O=C(OCCCCc1ccccc1)[C@@H]1CCCCN1S(=O)(=O)Cc1ccccc1` [D], in series [2], the “RT 97 RCC axon density 11 days” value came out at 58.4%.

With `CCC(C)(C)C(=O)C(=O)N1CCCC[C@H]1C(=O)O` [G], the “RT 97 RCC axon density 11 days” value in series [2] was 34.0%. For the compound `O=C(OCCCc1cccnc1)[C@@H]1CCCN1C(=S)NC1CCCCC1` [I], the Clearance in series [1] was 8.0 µL/min. In addition, the “RT 97 RCC axon density 11 days” value in series [2] was determined as 23.8%. Regarding `CCC(C)(C)C(=O)C(=O)N1CCCC[C@H]1C(=O)CCCCc1cccnc1` [J], the Clearance in series [1] came to 1.5 µL/min. The pKi in series [3] (Table V, read-out: Ki rotomase) is 6.68. The “RT 97 RCC axon density 11 days” value in series [2] was determined as 15.8%.

In series [1], `CCC(C)(C)C(=O)C(=O)N1CCC[C@H]1C(=O)O` [L] showed a Clearance of 5.2 µL/min. Moreover, the “RT 97 RCC axon density 11 days” value in series [2] worked out at 7.8%. For `O=C(SCCCc1ccccc1)[C@@H]1CCCN1S(=O)(=O)Cc1ccccc1` [C], the Clearance in series [1] is 31.1 µL/min. For the same compound, the “RT 97 RCC axon density 11 days” value in series [2] was 60.4%. For `CCC(C)(C)C(=O)C(=O)N1CCCC[C@H]1C(=O)O` [H], the “RT 97 RCC axon density 11 days” value in series [2] was 30.3%. In series [1], `CN(C)C(=O)N1CCC[C@H]1C(=O)SCCCc1ccccc1` [N] showed a Clearance of 21.9 µL/min. In series [1], `CCC(C)(C)C(=O)CN1CCCCC1C(=O)OC(CCc1ccccc1)CCc1ccccc1` (stereo not shown) [E] registered a Clearance of 42.8 µL/min. Besides, the “RT 97 RCC axon density 11 days” value in series [2] is 56.6%. Regarding `Cc1ccc(S(=O)(=O)N2CCCCC2C(=O)OC(CCCc2ccccc2)CCCc2ccccc2)cc1` (stereo not shown) [Compound 3, 1,7-diphenyl-4-heptyl-N-(para-toluene-sulfonyl)pipecolate], the pKi in series [3] (setting [4]) is 6.97.

Consider `O=C(SCCCc1ccccc1)[C@@H]1CCCN1C(=O)NC12CC3CC(CC(C3)C1)C2` [B], for which the “RT 97 RCC axon density 11 days” value in series [2] amounted to 100%. For the compound `Cc1ccc(S(=O)(=O)N2CCCCC2C(=O)OCCCCc2ccccc2)cc1` (stereo not shown) [Compound 5, 4-phenyl-1-butyl-N-(para-toluene-sulfonyl)pipecolate], in series [3] (setting [4]), the pKi was 6.30.

As to `O=C(OCCCCc1ccccc1)C1CCCCN1S(=O)(=O)c1ccccc1` (stereo not shown) [Compound 6, 4-phenyl-1-butyl-N-(benzene-sulfonyl)pipecolate], the pKi in series [3] (setting [4]) was 6.33.

For orientation: pKi means the negative decadic logarithm of the Ki, by convention in mol/L.
